According to US20120115852A1, “HETEROCYCLIC COMPOUNDS AS AUTOTAXIN INHIBITORS” (Merck Patent Gesellschaft Mit Beschrankter Haftung, priority 2009, published 2012):
pIC50: −log10 of the molar value.

Biological target: T1, recombinant autotaxin (Homo sapiens, UniProt Q13822)
T1 construct: made in house; host or cells: Hi5 insect cells (baculovirus)
Assay: Autotaxin test (enzyme test), Amplex Red fluorescence with LPC substrate
Assay type: biochemical
Details: autotaxin inhibition (enzyme test); for remaining activity at 10 µM: 10 μM compound, read-out: % Control at 10 μM
Experimental: Autotaxin Inhibition (Enzyme Test)
Autotaxin Test (Enzyme Test)
The autotaxin activity is measured indirectly using Amplex Red reagent. Amplex Red is measured here as fluorogenic indicator for the H2O2 formed. In detail, autotaxin converts the substrate lysophosphatidylcholine (LPC) into phosphocholine and lysophosphatidylic acid (LPA). After this reaction, the phosphocholine is reacted with alkaline phosphatase to give inorganic phosphate and choline. In the next step, choline is oxidised by choline oxidase to give betaine, with formation of H2O2. H2O2 reacts with Amplex Red reagent in the presence of peroxidase (horseradish peroxidase) in a 1:1 stoichiometry and forms the highly fluorescent resorufin. The fluorescence is measured in a reaction-dependent kinetic mode in order that fluorescent signals from possible other fluorescent substances which are not involved in the reaction can be corrected out.
3 μl of a standard solution or of the test substances (substances with the name A(n)) in individual concentrations dissolved in 20 mM Hepes pH 7.2 with a maximum of 11% of DMSO are pre-incubated together with 20 μl (19 ng) of highly purified recombinant autotaxin in test buffer in a black microtitre plate provided with 384 wells at 22° C. for 30 min. The reaction is then initiated by addition of 10 μl of L-α-lysophosphatidylcholine (LPC), where the final concentration of LPC is 75 μM. The mixture is incubated at 37° C. for 90 min. After the incubation, Amplex Red reagent, peroxidase (horseradish peroxidase) and choline oxidase is added, and the fluorescence is immediately measured at 612 nm with excitation of 485 nm in a “Tecan Ultra multimode” reader. The activity of autotaxin is calculated indirectly via detection of the H2O2 formed.
• Microtitre plate: PS microplate, 384 wells, small volume, black Corning, Cat#3677 • Protein: recombinant autotaxin (Baculovirale Hi5 Expression) • Substrate: L-α-lysophosphatidylcholine (chicken egg)); Avanti Polar Lipids #830071 P • Standard: C14 LPA, Avanti Polar Lipids, Cat#857120P • Detection reagent: Amplex Red reagent; Invitrogen #A12222; 5 mg dissolved in 1.923 ml of DMSO peroxidase type VI-A (horseradish) from Sigma #P6782; 5 mg dissolved in 7.45 ml of test buffer, choline oxidase; Sigma # C5896; 50 U dissolved in 2.47 ml of test buffer • Detection reagent mix: 1:50 dilution of detection reagent in test buffer • Test buffer: 10 mM Tris HCl, Merck, Cat #1.08219, pH 8, 1 mM; CaCl2×2 H2O, Merck #1.02382

Row | SMILES | remaining activity at 10 µM [%] | pIC50
1 | COC(C(=O)N1CCN2C(=O)c3cc(-c4ccc(Cl)cc4)ccc3NC(=O)C2C1)c1ccccc1 (stereo not shown) [Compound A42, 7-(4-Chlorophenyl)-2-(2-methoxy-2-phenylacetyl)-1,3,4,11a-tetrahydro-2H,10H-2,4a,10-triaza-dibenzo[a,d]cycloheptene-5,11-dione] | 12 | < 6.00
2 | O=C1Nc2ccc(-c3ccccc3F)cc2C(=O)N2CCN(C(=O)CCc3ccccn3)CC12 (stereo not shown) [Compound A20, 7-(2-Fluorophenyl)-2-(3-pyridin-2-ylpropionyl)-1,3,4,11a-tetrahydro-2H,10H-2,4a,10-triaza-dibenzo[a,d]cycloheptene-5,11-dione] | 63 | < 6.00
3 | CC(C)(C)CC(=O)N1CCN2C(=O)c3cc(-c4ccccc4F)ccc3NC(=O)C2C1 (stereo not shown) [Compound A13, 2-(3,3-Dimethylbutyryl)-7-(2-fluorophenyl)-1,3,4,11a-tetrahydro-2H,10H-2,4a,10-triaza-dibenzo[a,d]cycloheptene-5,11-dione] |  | < 6.00
4 | CN(C)c1ccc(C(=O)N2CCN3C(=O)c4cc(-c5ccc(Cl)cc5)ccc4NC(=O)[C@H]3C2)cc1 [Compound A9, (R)-7-(4-Chlorophenyl)-2-(4-dimethylamino-benzoyl)-1,3,4,11a-tetrahydro-2H,10H-2,4a,10-triazadibenzo[a,d]cycloheptene-5,11-dione] | 84 | 
5 | O=C1Nc2ccc(-c3ccc(Cl)cc3)cc2C(=O)N2CCN(C(=O)c3cscn3)CC12 (stereo not shown) [Compound A36, 7-(4-Chlorophenyl)-2-(thiazole-4-carbonyl)-1,3,4,11a-tetrahydro-2H,10H-2,4a,10-triaza-dibenzo[a,d]cycloheptene-5,11-dione] |  | 6.00 to 7.00
6 | O=C1Nc2ccc(-c3ccc(Cl)cc3)cc2C(=O)N2CCN(C(=O)Cc3ccccn3)CC12 (stereo not shown) [Compound A29, 7-(4-Chlorophenyl)-2-(2-pyridin-2-ylacetyl)-1,3,4,11a-tetrahydro-2H,10H-2,4a,10-triaza-dibenzo[a,d]cycloheptene-5,11-dione] | 51 | < 6.00
7 | COc1ccc(-c2ccc3c(c2)C(=O)N2CCN(C(=O)c4cccc(F)c4)C[C@@H]2C(=O)N3)cc1 [Compound A11, (R)-2-(3-Fluorobenzoyl)-7-(4-methoxyphenyl)-1,3,4,11a-tetrahydro-2H,10H-2,4a,10-triaza-dibenzo[a,d]cycloheptene-5,11-dione] | 69 | 
8 | O=C1Nc2ccc(-c3ccc(Cl)cc3)cc2C(=O)N2CCN(C(=O)C(O)c3ccc(Cl)cc3)CC12 (stereo not shown) [Compound A38, 7-(4-Chlorophenyl)-2-[2-(4-chlorophenyl)-2-hydroxyacetyl]-1,3,4,11a-tetrahydro-2H,10H-2,4a,10-triazadibenzo[a,d]cycloheptene-5,11-dione] | 35 | < 6.00
9 | Cn1cc(CCC(=O)N2CCN3C(=O)c4cc(-c5ccc(Cl)cc5)ccc4NC(=O)C3C2)cn1 (stereo not shown) [Compound A26, 7-(4-Chlorophenyl)-2-[3-(1-methyl-1H-pyrazol-4-yl)-propionyl]-1,3,4,11a-tetrahydro-2H,10H-2,4a,10-triazadibenzo[a,d]cycloheptene-5,11-dione] | 12 | < 6.00
10 | O=C1Nc2ccc(-c3ccc(Cl)cc3)cc2C(=O)N2CCN(C(=O)Cc3ccccc3)CC12 (stereo not shown) [Compound A32, 7-(4-Chlorophenyl)-2-phenylacetyl-1,3,4,11a-tetrahydro-2H,10H-2,4a,10-triazadibenzo[a,d]-cycloheptene-5,11-dione] | 76 | 
11 | O=C1Nc2ccc(-c3ccc(Cl)cc3)cc2C(=O)N2CCN(C(=O)[C@@H]3CSCN3)C[C@H]12 [Compound A5, (R)-7-(4-Chlorophenyl)-2-((R)-thiazolidine-4-carbonyl)-1,3,4,11a-tetrahydro-2H,10H-2,4a,10-triazadibenzo[a,d]cycloheptene-5,11-dione] |  | < 6.00

The next lines start with the values.

Row | remaining activity at 10 µM [%] | pIC50 | SMILES
12 | 32 | < 6.00 | O=C1Nc2ccc(-c3ccc(Cl)cc3F)cc2C(=O)N2CCN(C(=O)[C@@H]3CCCN3C3CCCCC3)C[C@H]12 [Compound A121, (R)-7-(4-Chloro-2-fluorophenyl)-2-((S)-1-cyclohexyl-pyrrolidine-2-carbonyl)-1,3,4,11a-tetrahydro-2H,10H-2,4a,10-triazadibenzo[a,d]cycloheptene-5,11-dione]
13 | 48.5 | < 6.00 | CC(C)(C)[C@H](N)C(=O)N1CCN2C(=O)c3cc(-c4ccc(Cl)cc4F)ccc3NC(=O)[C@H]2C1 [Compound A65, (R)-2-((S)-2-Amino-3,3-dimethylbutyryl)-7-(4-chloro-2-fluorophenyl)-1,3,4,11a-tetrahydro-2H,10H-2,4a,10-triazadibenzo[a,d]cycloheptene-5,11-dione]
14 | 83 |  | CN(C)c1ccc(C(=O)N2CCN3C(=O)c4cc(-c5ccccc5F)ccc4NC(=O)[C@H]3C2)cc1 [Compound B24]
15 | 63 |  | O=C1Nc2ccc(-c3ccc(Cl)cc3)cc2C(=O)N2CCN(C(=O)C(F)(F)F)CC12 (stereo not shown) [Compound A136, 7-(4-Chlorophenyl)-2-(2,2,2-trifluoroacetyl)-1,3,4,11a-tetrahydro-2H,10H-2,4a,10-triazadibenzo-[a,d]cycloheptene-5,11-dione]
16 | 85 |  | CC(C)(C)CC(=O)N1CCN2C(=O)c3cc(Br)ccc3NC(=O)C2C1 (stereo not shown) [Compound A142]
17 | 7 | 6.00 to 7.00 | CN(C)CCN1C(=O)[C@H]2CN(C(=O)[C@@H]3CCCN3C3CCNCC3)CCN2C(=O)c2cc(-c3ccc(Cl)cc3F)ccc21 [Compound A156]
18 | 5 | < 6.00 | O=C1Nc2ccc(-c3ccc(Cl)cc3)cc2C(=O)N2CCN(C(=O)[C@H](O)C3CCCCC3)CC12 (stereo partly drawn) [Compound A112, 7-(4-Chlorophenyl)-2-((R)-2-cyclohexyl-2-hydroxy-acetyl)-1,3,4,11a-tetrahydro-2H,10H-2,4a,10-triazadibenzo[a,d]cycloheptene-5,11-dione]
19 | 28 | < 6.00 | O=C1Nc2ccc(-c3ccc(Cl)cc3F)cc2C(=O)N2CCN(C(=O)[C@@H]3C[C@@H](O)CN3)CC12 (stereo partly drawn) [Compound A70, 7-(4-Chloro-2-fluorophenyl)-2-((2S,4R)-4-hydroxy-pyrrolidine-2-carbonyl)-1,3,4,11a-tetrahydro-2H,10H-2,4a,10-triazadibenzo[a,d]cycloheptene-5,11-dione]
20 | -21 | < 6.00 | CC(C)(C)C(=O)N1CCN2C(=O)c3cc(-c4ccc(Cl)cc4)ccc3NC(=O)C2C1 (stereo not shown) [Compound A109, 7-(4-Chlorophenyl)-2-(2,2-dimethylpropionyl)-1,3,4,11a-tetrahydro-2H,10H-2,4a,10-triaza-dibenzo[a,d]cycloheptene-5,11-dione]
21 | 20 | < 6.00 | O=C1Nc2ccc(-c3ccc(Cl)cc3F)cc2C(=O)N2CCN(C(=O)[C@@H]3CCCN3C3CCNCC3)C[C@@H]12 [Compound A126, (S)-7-(4-Chloro-2-fluorophenyl)-2-((S)-1-piperidin-4-ylpyrrolidine-2-carbonyl)-1,3,4,11a-tetrahydro-2H,10H-2,4a,10-triazadibenzo[a,d]cycloheptene-5,11-dione]
22 | 80 | < 6.00 | CN(C)CCN1CCC[C@H]1C(=O)N1CCN2C(=O)c3cc(-c4ccc(Cl)cc4F)ccc3NC(=O)C2C1 (stereo partly drawn) [Compound A115, 7-(4-Chloro-2-fluorophenyl)-2-[(S)-1-(2-dimethyl-aminoethyl)pyrrolidine-2-carbonyl]-1,3,4,11a-tetrahydro-2H,10H-2,4a,10-triaza-dibenzo[a,d]cycloheptene-5,11-dione]
23 | 3 | 6.00 to 7.00 | CC(C)(C)CC(=O)N1CCN2C(=O)c3cc(-c4ccc(Cl)cc4F)ccc3N(CCO)C(=O)[C@H]2C1 [Compound A152]
24 | 42 | < 6.00 | CC(C)(C)CC(=O)N1CCN2C(=O)c3cc(-c4ccc(Cl)nc4)ccc3NC(=O)C2C1 (stereo not shown) [Compound A128, 7-(6-Chloropyridin-3-yl)-2-(3,3-dimethylbutyryl)-1,3,4,11a-tetrahydro-2H,10H-2,4a,10-triaza-dibenzo[a,d]cycloheptene-5,11-dione]
25 | 33 |  | O=C1Nc2ccc(-c3ccc(Cl)cc3)cc2C(=O)N2CCN(C(=O)[C@@H]3CCCN3C3CCNCC3)C[C@@H]12 [Compound A81, (S)-7-(4-Chlorophenyl)-2-((S)-1-piperidin-4-yl-pyrrolidine-2-carbonyl)-1,3,4,11a-tetrahydro-2H,10H-2,4a,10-triazadibenzo[a,d]cycloheptene-5,11-dione]
